# Data taken from US20160051513A1, “USE OF 4-BENZAMIDE IN THE TREATMENT OF NEUROPATHIC PAIN” (LES LABORATOIRES SERVIER, priority 2013, published 2016).
# Counter-ions that a name gives are not always drawn.
# Tests used:
# [1] = tested on: mechanical hyperalgesia caused by chronic constriction (CCI) of the sciatic nerve; test: Mechanical hyperalgesia (vocalisation threshold) in CCI model, compound and agomelatine on their own or in association; assay type: in vivo, rat; settings: every day for 5 days, S 0.3 mg of base/kg per os, agomelatine 10 mg/kg i.p., alone or in association
# Description: The effects of 4-{3-[cis-hexahydrocyclopenta[c]pyrrol-2(1H)-yl]propoxy}benzamide and agomelatine, administered on their own or in association, were studied on the mechanical hyperalgesia caused in the rat by chronic constriction (CCI) of the sciatic nerve (see Example B).
# The vocalisation threshold was measured in the animals every day for 5 days, before and 45 minutes after the administration of 4-{3-[cis-hexahydrocyclopenta[c]pyrrol-2(1H)-yl]-propoxy}benzamide hydrochloride at a dose of 0.3 mg of base/kg per os (the compound being referred to as S in FIG. 4) and agomelatine at a dose of 10 mg/kg i.p., on their own or in association.
# [2] = tested on: model of diabetic neuropathy caused by streptozocin (STZ); test: Mechanical hyperalgesia (paw pressure vocalisation threshold) in model of diabetic neuropathy caused by streptozocin; assay type: in vivo, rat; settings: for effect of reference treatments compared with the compound: STZ rats
# Description: The effects of 4-{3-[cis-hexahydrocyclopenta[c]pyrrol-2(1H)-yl]propoxy}benzamide and of two reference treatments for neuropathic pain (gabapentin and pregabalin) were studied in the rat, in the model of diabetic neuropathy caused by streptozocin (STZ).
# In rats, administration of high-dose STZ (>35 mg/kg) causes diabetes which is similar to hyperglycaemic diabetes mellitus in humans. This is brought about by histopathological changes in the beta cells of islets of Langerhans and is associated with neuropathic pain. This pain is made manifest especially by mechanical hyperalgesia which can be attested by the lowering of the animal's vocalisation threshold when an increasing pressure is applied to the paw (Courteix et al., Pain, 1993, 53(1):81-8). During the test, a weight is placed on the rat's paw; its weight (in grams) increases until the animal vocalises. In this experiment, 21 days after the intraperitoneal injection of STZ (72 mg/kg), the rats develop diabetes characterised especially by hyperglycaemia (controlled during the experiment by injection of insulin) and associated with mechanical hyperalgesia. Indeed, the vocalisation threshold of the rats is lowered by half compared to the threshold which those animals had prior to injection of STZ (FIG. 1).
# [3] = tested on: mechanical hyperalgesia caused by chronic constriction (CCI) of the sciatic nerve; test: Mechanical hyperalgesia (vocalisation threshold) in model of neuropathy caused by chronic constriction (CCI) of the sciatic nerve; assay type: in vivo, rat; settings: for reversal of the hyperalgesia (vocalisation threshold versus before the procedure): after 4 days of chronic treatment
# Source text: The effects of 4-{3-[cis-hexahydrocyclopenta[c]pyrrol-2(1H)-yl]propoxy}benzamide and of gabapentin were studied on the mechanical hyperalgesia caused in the rat by chronic constriction (CCI) of the sciatic nerve.
# This model of post-traumatic neuropathic pain closely reproduces the symptoms of neuropathic pain which can be observed in humans, namely mechanical and thermal hyperalgesia, mechanical allodynia and spontaneous pain (Bennett and Xie, Pain, 1988, 33(1):87-107; Munger et al., Exp Neurol, 1992, 118(2):204-14; Kim et al., Brain Res, 1997, 113(2):200-6.).
# [4] = tested on: thermal allodynia after administration of oxaliplatin (OXA); test: Thermal (cold) allodynia, tail withdrawal time in cold bath at 10° C, model of neuropathy caused by oxaliplatin; assay type: in vivo, rat; settings: for reversal of the allodynia (tail withdrawal time versus before the procedure): oxaliplatin 6 mg/kg i.p.
# Source text: The effects of 4-{3-[cis-hexahydrocyclopenta[c]pyrrol-2(1H)-yl]propoxy}benzamide and of two reference treatments for neuropathic pain (gabapentin and pregabalin) were studied on the thermal allodynia which occurs in rats after administration of oxaliplatin (OXA). Oxaliplatin is a synthetic anticancer medication from the group of agents derived from platinum, especially used in the treatment of cancers of the colon and rectum.
# In the rat, acute administration of oxaliplatin specifically causes cold hyperalgesia and allodynia in the subsequent 24 hours, which lasts for several days. This animal model therefore closely mimics the painful symptoms observed in humans after infusion of oxaliplatin, especially the rapid appearance of intense sensory disturbances caused by cold, of the hyperalgesic and allodynic type (Ling et al. Toxicology. 2007; 234(3):176-84).
# The results of this study confirm that, 36 hours after acute intraperitoneal administration of oxaliplatin (6 mg/kg), the rats develop cold allodynia, reflected by very rapid withdrawal of their tail when it is placed in a cold bath at 10° C. Indeed, this withdrawal time is, on average, half as long as that of the rats before administration of oxaliplatin (FIG. 3).
# [5] = tested on: anxiety associated with the neuropathic pain caused by chronic constriction (CCI) of the sciatic nerve; test: Anxiety associated with neuropathic pain caused by CCI (time in open parts of cylindrical corridor); assay type: in vivo; settings: CCI rat, 4 weeks after constriction
# Description: The effects of 4-{3-[cis-hexahydrocyclopenta[c]pyrrol-2(1H)-yl]propoxy}benzamide were studied on the anxiety associated with the neuropathic pain caused by chronic constriction (CCI) of the sciatic nerve in the rat.
# In this study, the rats are placed for 5 minutes in a cylindrical corridor which has two parts closed off by a wall and two opposite parts which are open. The test creates a conflict between the rodent's natural desire to explore and its fear of open spaces which make it vulnerable to predators. Anxiety is measured in this test by the time spent by the rat in exploring the open parts of the cylindrical corridor (Bleickardt et al. Psychopharmacology (Berl), 2009, 202(4):711-8; Alba-Delgado et al. Biol. Psychiatry, 2013, 73(1):54-62).
# [6] = Clinical acceptability profile; assay type: in vivo, human
# [7] = tested on: depression associated with the neuropathic pain caused by CCI; test: Depression associated with neuropathic pain caused by CCI (duration of immobility in cylinder filled with water); assay type: in vivo; settings: CCI rat, 4 weeks after constriction
# Description: The effects of 4-{3-[cis-hexahydrocyclopenta[c]pyrrol-2(1H)-yl]propoxy}benzamide were studied on the depression associated with the neuropathic pain caused by CCI in the rat. In this study, the rat is placed for 5 minutes in a cylinder filled with water, out of which it is unable to climb. After struggling in the water, the animal becomes immobile, reflecting “behavioural despair”, which occurs when the animal realises that it will not be able to escape. Depressive behaviour is measured in this test by the duration of immobility.
SMILES,"anti-hyperalgesic effect (vocalisation threshold), chronic administration [1]",reversal of the hyperalgesia (vocalisation threshold versus before the procedure) [3],reversal of the allodynia (tail withdrawal time versus before the procedure) [4],effect of reference treatments compared with the compound [2],also measured
"COc1ccc2cccc(CCNC(C)=O)c2c1 [agomelatine, reference compound]",moderate and very inconstant anti-hyperalgesic effect,–,–,–,–
"NC(=O)c1ccc(OCCCN2C[C@H]3CCC[C@H]3C2)cc1 [S, 4-{3-[cis-hexahydrocyclopenta[c]pyrrol-2(1H)-yl]propoxy}benzamide hydrochloride]",moderate anti-hyperalgesic effect,complete reversal of the hyperalgesia,complete reversal of the allodynia,–,"value of the vocalisation threshold relative to non-diabetic animals ([2]; 3 mg of base per kg per os, from the second day of administration): the same as that of non-diabetic animals; vocalisation threshold compared to animals having been given the carrier ([2]; STZ 72 mg/kg i.p., 21 days after, 3 mg of base per kg per os): substantial and significant increase in the vocalisation threshold; anti-hyperalgesic effect (vocalisation threshold) ([3]; 12 days after CCI, 1 mg of base/kg per os): significant anti-hyperalgesic effect; anti-allodynic effect (tail withdrawal time, cold bath 10° C) ([4]; 36 hours after oxaliplatin 6 mg/kg i.p., 0.3 mg of base/kg per os, from D1, 1 hour after a single administration): significant anti-allodynic effect"
"NCC1(CC(=O)O)CCCCC1 [gabapentin, reference compound]",–,reversal is also observed,rapid reversal is also observed,entirely comparable,–
"CC(C)C[C@H](CN)CC(=O)O [pregabalin, reference compound]",–,–,rapid reversal is also observed,entirely comparable,–
NC(=O)c1ccc(OCCCN2C[C@H]3CCC[C@H]3C2)cc1 [4-{3-[cis-hexahydrocyclopenta[c]pyrrol-2(1H)-yl]-propoxy}benzamide],–,–,–,–,effects on the anxiety associated with the neuropathic pain [5]: beneficial effects; acceptability profile ([6]; healthy volunteers): good acceptability profile; acceptability profile ([6]; patients suffering from Alzheimer's disease): good acceptability profile; beneficial effect on vocalisation threshold over time ([2]; administered every day for 5 days): maintained over time; effects on the depression associated with the neuropathic pain [7]: beneficial effects
